Laboratory results reported in patent US12570642B2, “GLP-IR modulating compounds” (Gilead Sciences, Inc., priority 2021, dated 2026).

Target: GLP-1R (Homo sapiens, UniProt P43220)
Assay: GLP-1R Activation - cAMP Assay
Assay type: cell-based
Conditions: each compound run on one of the two cAMP assays (Assay 1 or Assay 2, not specified)
Procedure: GLP-1R Activation—cAMP Assay 1
GLP-1R activation by compounds of the present disclosure were quantified by measuring cAMP increase in CHO cells stably expressing GLP-1R (MultiSpan product #C1267-1a). The cells were harvested and plated in growth medium (DMEM/F-12 (Corning product #10-090-CV) supplemented with 10% FBS (HyClone product #SH30071-03), penicillin/streptomycin (Corning product #30-002CI) and 10 μg/ml puromycin (Gibco product #A11138-03)) at 1,000 cells/well in a 384-well plate (Greiner product #781080). The cells were then incubated overnight at 37° C., 5% CO2. The next day, the medium was removed and the cells were washed with DPBS (Corning product #21-031-CM) before adding the assay medium (HBSS, Corning product #21-023-CV) with 20 mM Hepes (Gibco product #15630-080) and 0.1% BSA (Rockland Immunochemicals product #BSA-1000)). Following the medium change, the cells were incubated for 1 hour at 37° C., 5% CO2. The tested GLP-1 compound was added to the cells in a 10-point dose response followed by a 30 minutes incubation at 37° C., 5% CO2. cAMP concentration increase was then detected using Cisbio's cAMP Gs Dynamic Kit (product #62AM4PEC) according to the manufacturer's protocol. The response was plotted against the log of the agonist concentration and fitted to a sigmoidal equation to determine the EC50.

[1] = cAMP increase in CHO cells stably expressing GLP-1R

Sequence of GLP-1R (P43220 24-463): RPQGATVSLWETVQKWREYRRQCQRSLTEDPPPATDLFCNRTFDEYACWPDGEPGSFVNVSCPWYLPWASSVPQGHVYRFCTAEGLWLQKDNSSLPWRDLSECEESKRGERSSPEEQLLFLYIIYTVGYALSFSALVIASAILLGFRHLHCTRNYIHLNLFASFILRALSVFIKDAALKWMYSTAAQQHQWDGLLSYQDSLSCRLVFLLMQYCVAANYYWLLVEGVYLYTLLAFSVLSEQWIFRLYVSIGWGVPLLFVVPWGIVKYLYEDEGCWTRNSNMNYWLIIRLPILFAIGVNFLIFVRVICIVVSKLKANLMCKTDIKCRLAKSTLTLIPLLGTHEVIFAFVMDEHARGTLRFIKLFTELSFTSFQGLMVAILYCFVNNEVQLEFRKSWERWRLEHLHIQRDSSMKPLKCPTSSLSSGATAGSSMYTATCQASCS

Row | SMILES | EC50 [1] | EC50 ([…])
1 | CC12CC(n3c(Cc4cc(F)c(-c5cccc(OCc6ccc(C#N)cc6F)n5)cc4F)nc4ccc(C(=O)O)cc43)(CO1)C2 (racemic) [Example 270, 2-(4-(6-((4-cyano-2-fluorobenzyl)oxy)pyridin-2-yl)-2,5-difluorobenzyl)-1-((1s,4s)-1-methyl-2-oxabicyclo[2.1.1]hexan-4-yl)-1H-benzo[d]imidazole-6-carboxylic acid] | 6090 nM | –
2 | Cn1cc(-c2cc(F)c(COc3cccc(-c4cc(F)c(Cc5nc6ccc(C(=O)O)cc6n5[C@@H]5COCC5(C)C)cc4F)n3)cn2)nn1 [Example 555, (S)-2-(2,5-difluoro-4-(6-((4-fluoro-6-(1-methyl-1H-1,2,3-triazol-4-yl)pyridin-3-yl)methoxy)pyridin-2-yl)benzyl)-1-(4,4-dimethyltetrahydrofuran-3-yl)-1H-benzo[d]imidazole-6-carboxylic acid] | 0.047 nM | –
3 | CC1(C)COC[C@H]1n1c(Cc2c(F)cc(-c3cccc(OCc4ccc(Cl)cc4F)n3)c(F)c2F)nc2ccc(C(=O)O)cc21 [Example 247, (S)-2-(4-(6-((4-chloro-2-fluorobenzyl)oxy)pyridin-2-yl)-2,3,6-trifluorobenzyl)-1-(4,4-dimethyltetrahydrofuran-3-yl)-1H-benzo[d]imidazole-6-carboxylic acid] | 0.151 nM | –
4 | CC1(C)COC[C@H]1n1c(Cc2ccc(-c3ccc(F)c(OCc4ccc(C#N)cc4F)n3)c(F)c2)nc2ccc(C(=O)O)cc21 [Example 369, (S)-2-(4-(6-((4-cyano-2-fluorobenzyl)oxy)-5-fluoropyridin-2-yl)-3-fluorobenzyl)-1-(4,4-dimethyltetrahydrofuran-3-yl)-1H-benzo[d]imidazole-6-carboxylic acid] | 0.364 nM | –
5 | N#Cc1ccc(COc2cccc(-c3cc(F)c(Cc4nc5ccc(C(=O)O)cc5n4[C@@H]4COC[C@@H]4C(F)F)cc3F)n2)c(F)c1 (racemic) [Example 267, 2-(4-(6-((4-cyano-2-fluorobenzyl)oxy)pyridin-2-yl)-2,5-difluorobenzyl)-1-((4R)-4-(difluoromethyl)tetrahydrofuran-3-yl)-1H-benzo[d]imidazole-6-carboxylic acid] | 0.055 nM | –
6 | N#Cc1ccc(COc2cccc(-c3cc(F)c(Cc4nc5ccc(C(=O)O)cc5n4[C@@H]4COC[C@@H]4C4CC4)cc3F)n2)c(F)c1 [Example 191, 2-(4-(6-((4-cyano-2-fluorobenzyl)oxy)pyridin-2-yl)-2,5-difluorobenzyl)-1-((3S,4R)-4-cyclopropyltetrahydrofuran-3-yl)-1H-benzo[d]imidazole-6-carboxylic acid] | 0.353 nM | –
7 | CC1(C)COC[C@H]1n1c(Cc2cc(F)c(-c3ccc(F)c(OCc4ccc(-n5ccnn5)cc4F)n3)cc2F)nc2ccc(C(=O)O)cc21 [Example 163, (S)-2-(2,5-difluoro-4-(5-fluoro-6-((2-fluoro-4-(1H-1,2,3-triazol-1-yl)benzyl)oxy)pyridin-2-yl)benzyl)-1-(4,4-dimethyltetrahydrofuran-3-yl)-1H-benzo[d]imidazole-6-carboxylic Acid] | 0.039 nM | –
8 | COc1cc(Cl)ncc1COc1nc(-c2cc(F)c(Cc3nc4c(F)cc(C(=O)O)cc4n3[C@@H]3COCC3(C)C)cc2F)ccc1F [Example 340, (S)-2-(4-(6-((6-chloro-4-methoxypyridin-3-yl)methoxy)-5-fluoropyridin-2-yl)-2,5-difluorobenzyl)-1-(4,4-dimethyltetrahydrofuran-3-yl)-4-fluoro-1H-benzo[d]imidazole-6-carboxylic acid] | 0.005 nM | –
9 | N#Cc1ccc(COc2cccc(-c3cc(F)c(Cc4nc5ccc(C(=O)O)cc5n4CC4CC5(CC5)CO4)cc3F)n2)c(F)c1 (stereo not drawn) [Example 274, 1-(5-oxaspiro[2.4]heptan-6-ylmethyl)-2-(4-(6-((4-cyano-2-fluorobenzyl)oxy)pyridin-2-yl)-2,5-difluorobenzyl)-1H-benzo[d]imidazole-6-carboxylic acid] | 0.643 nM | –
10 | COCCn1c(Cc2cc(F)c(-c3cccc(OCc4ccc(-n5ccnc5)nc4)n3)cc2F)nc2ccc(C(=O)O)cc21 [Example 95, 2-(4-(6-((6-(1H-imidazol-1-yl)pyridin-3-yl)methoxy)pyridin-2-yl)-2,5-difluorobenzyl)-1-(2-methoxyethyl)-1H-benzo[d]imidazole-6-carboxylic Acid] | 0.97 nM | –
11 | CC1(C)COC[C@H]1n1c(Cc2cc(F)c(-c3cccc(OCc4ncc(Cl)cc4F)n3)cc2F)nc2c(F)cc(C(=O)O)cc21 [Example 287, (S)-2-(4-(6-((5-chloro-3-fluoropyridin-2-yl)methoxy)pyridin-2-yl)-2,5-difluorobenzyl)-1-(4,4-dimethyltetrahydrofuran-3-yl)-4-fluoro-1H-benzo[d]imidazole-6-carboxylic acid] | 0.051 nM | –
12 | CC1(C)COC[C@@H]1n1c(Cc2ccc(-c3cccc(OCc4ccc(C#N)cc4F)n3)cc2F)nc2ccc(C(=O)O)cc21 (single isomer, unassigned) [Example 379] | 0.574 nM | –
13 | COCCn1c(Cc2ccc(-c3cccc(OCc4ccc(C#N)cc4F)n3)c3c2COC3)nc2ccc(C(=O)O)cc21 [Example 97] | 21.2 nM | –
14 | COCCn1c(Cc2cc(F)c(-c3cccc(OCc4ccc(-n5ccnn5)cc4F)n3)cc2F)nc2ccc(C(=O)O)c(F)c21 [Example 374, 2-(2,5-difluoro-4-(6-((2-fluoro-4-(1H-1,2,3-triazol-1-yl)benzyl)oxy)pyridin-2-yl)benzyl)-7-fluoro-1-(2-methoxyethyl)-1H-benzo[d]imidazole-6-carboxylic acid] | 0.571 nM | –
15 | C[C@H]1COC[C@H]1n1c(Cc2cc(F)c(-c3ccc(F)c(OCc4cc(F)c(C#N)cc4F)n3)cc2F)nc2ccc(C(=O)O)cc21 [Example 481, 2-(4-(6-((4-cyano-2,5-difluorobenzyl)oxy)-5-fluoropyridin-2-yl)-2,5-difluorobenzyl)-1-((3S,4R)-4-methyltetrahydrofuran-3-yl)-1H-benzo[d]imidazole-6-carboxylic acid] | 0.883 nM | –
16 | CC1(C)COC[C@H]1n1c(Cc2ccc(-c3ccc(F)c(OCc4cnc(-n5ccnn5)cc4Cl)n3)cc2F)nc2c(F)cc(C(=O)O)cc21 [Example 154, (S)-2-(4-(6-((4-chloro-6-(1H-1,2,3-triazol-1-yl)pyridin-3-yl)methoxy)-5-fluoropyridin-2-yl)-2-fluorobenzyl)-1-(4,4-dimethyltetrahydrofuran-3-yl)-4-fluoro-1H-benzo[d]imidazole-6-carboxylic Acid] | 0.034 nM | –
17 | CC1(C)COC[C@H]1n1c(Cc2ccc(-c3cccc(OCc4ccc(Cl)cc4)n3)cc2F)nc2ccc(C(=O)O)cc21 [Example 371, (S)-2-(4-(6-((4-chlorobenzyl)oxy)pyridin-2-yl)-2-fluorobenzyl)-1-(4,4-dimethyltetrahydrofuran-3-yl)-1H-benzo[d]imidazole-6-carboxylic acid] | 0.127 nM | –
18 | CC1(C)COC[C@@H]1n1c(Cc2cc(F)c(-c3cccc(OCc4ccc(C#N)cc4F)n3)cc2F)nc2ccc(C(=O)O)cc21 [Example 59] | 0.32 nM | –
19 | CC1(C)COCCC1n1c(Cc2cc(F)c(-c3cccc(OCc4ccc(C#N)cc4F)n3)cc2F)nc2ccc(C(=O)O)cc21 (stereo not drawn) [Example 83, 2-(4-(6-((4-cyano-2-fluorobenzyl)oxy)pyridin-2-yl)-2,5-difluorobenzyl)-1-(3,3-dimethyltetrahydro-2H-pyran-4-yl)-1H-benzo[d]imidazole-6-carboxylic Acid] | 0.62 nM | –
20 | CC1(C)COC[C@H]1n1c(Cc2cc(F)c(-c3cccc(OCc4ccc(C(F)(F)F)cc4F)n3)cc2F)nc2ccc(C(=O)O)cc21 [Example 168, (S)-2-(2,5-difluoro-4-(6-((2-fluoro-4-(trifluoromethyl)benzyl)oxy)pyridin-2-yl)benzyl)-1-(4,4-dimethyltetrahydrofuran-3-yl)-1H-benzo[d]imidazole-6-carboxylic Acid] | 0.388 nM | –
21 | CC(=O)N[C@@H]1COC[C@@H]1n1c(Cc2cc(F)c(-c3cccc(OCc4ccc(C#N)cc4F)n3)cc2F)nc2ccc(C(=O)O)cc21 [Example 17, 1-((3R,4S)-4-acetamidotetrahydrofuran-3-yl)-2-(4-(6-((4-cyano-2-fluorobenzyl)oxy)pyridin-2-yl)-2,5-difluorobenzyl)-1H-benzo[d]imidazole-6-carboxylic Acid] | – | 5.61 nM
22 | COC(C)(C)C(C)n1c(Cc2cc(F)c(-c3cccc(OCc4ccc(Cl)cc4F)n3)cc2F)nc2ccc(C(=O)O)cc21 (stereo not drawn) [Example 507, 2-(4-(6-((4-chloro-2-fluorobenzyl)oxy)pyridin-2-yl)-2,5-difluorobenzyl)-1-(3-methoxy-3-methylbutan-2-yl)-1H-benzo[d]imidazole-6-carboxylic acid] | 0.351 nM | –
23 | COCCn1c(Cc2cc(C)c(-c3cccc(OCc4ccc(C#N)cc4F)n3)cc2Cl)nc2c(F)cc(C(=O)O)cc21 [Example 227, 2-(2-chloro-4-(6-((4-cyano-2-fluorobenzyl)oxy)pyridin-2-yl)-5-methylbenzyl)-4-fluoro-1-(2-methoxyethyl)-1H-benzo[d]imidazole-6-carboxylic acid] | 4.8 nM | –
24 | CC1(C)COC[C@H]1n1c(Cc2cc(F)c(-c3cccc(OCc4ccc(C#N)cc4Cl)n3)cc2F)nc2ccc(C(=O)O)cc21 [Example 460, (S)-2-(4-(6-((2-chloro-4-cyanobenzyl)oxy)pyridin-2-yl)-2,5-difluorobenzyl)-1-(4,4-dimethyltetrahydrofuran-3-yl)-1H-benzo[d]imidazole-6-carboxylic acid] | 0.096 nM | –
